Test results published in paper PMC12442099 (ACS Infectious Diseases, 2025).
≈ marks a conversion by molar mass, not a printed value.

Legend:
[1] = tested on: E. coli 25922; test: MIC broth microdilution; type: cell-based; details: Escherichia coli, CAMHB, median of triplicates, read-out: MIC (μg/mL) E. coli 25922
Protocol: (§1) The antibacterial activity of the compounds was determined by measuring their minimum inhibitory concentration (MIC) values using the broth microdilution method according to the Clinical and Laboratory Standards Institute guidelines (CLSI). Briefly, a single colony from blood agar plates was inoculated into cation-adjusted Mueller-Hinton broth (CAMHB) and grown to OD600 = 0.5. Next, 10^6 CFU/mL were added to a 2-fold serial dilution series of test compounds and incubated at 37 °C, 600 rpm overnight (18–20 h for Gram-negative strains, 20–24 h for Gram-positive strains), after which the plates were visually inspected for bacterial growth. MICs are reported as the median of triplicates.

[2] = tested on: E. coli TOP10F’; test: MIC broth microdilution; type: cell-based; details: Escherichia coli; screening strain; CAMHB, median of triplicates; read-out: MIC (μg/mL) E. coli TOP10F’
Protocol: as §1

[3] = tested on: E. coli BW25113; test: MIC broth microdilution; type: cell-based; details: Escherichia coli, CAMHB, median of triplicates, read-out: MIC (μg/mL) E. coli BW25113
Protocol: as §1

[4] = tested on: A. baumanni 9955; test: MIC broth microdilution; type: cell-based; details: Acinetobacter baumannii, clinical isolate, CAMHB, median of triplicates, read-out: MIC (μg/mL) A. baumanni 9955
Protocol: as §1

[5] = tested on: P. aeruginosa 27853; test: MIC broth microdilution; type: cell-based; details: Pseudomonas aeruginosa, clinical isolate, CAMHB, median of triplicates, read-out: MIC (μg/mL) P. aeruginosa 27853
Protocol: as §1

[6] = tested on: S. aureus USA 300; test: MIC broth microdilution; type: cell-based; details: Staphylococcus aureus, USA300; clinical isolate; CAMHB, median of triplicates; read-out: MIC (μg/mL) S. aureus USA 300
Protocol: as §1

[7] = tested on: K. pneumoniae 13883; test: MIC broth microdilution; type: cell-based; details: Klebsiella pneumoniae, clinical isolate, CAMHB, median of triplicates, read-out: MIC (μg/mL) K. pneumoniae 13883
Protocol: as §1

[8] = tested on: E. coli TOP10F’ cells; test: Phase contrast and fluorescence microscopy of cell morphology; type: cell-based; details: EC50 concentrations, 4 h, vs DMSO
Description: DMSO-treated control cells had normal rod-shaped morphology. Drastic changes to cell and membrane morphology were observed following compound treatment.
Cells were stained with Nile red to visualize membranes and Hoechst to label DNA. a: Phase Contrast; b: Nile Red; c: Hoechst; d: overlay of Nile Red and Hoechst. White arrows indicate differences observed between control and compound treated cells, such as different localization and increased number of bright, lipid spots, vesicle-like bulges, apparent leakage of lipid contents and condensed DNA. Pictures are representative of at least 5 images taken per sample, during two independent experiments with similar results. Bottom panels show (B) cell length or (C) cell area after treatment with DMSO or EC50 concentrations of A2 or B1. Cells were analyzed after 4h of compound treatment. Data are representative of two independent experiments with similar results. Data were analyzed using a One-Way ANOVA with Kruskal–Wallis test for multiple comparisons. **** = p < 0.0001. Cells were counted from 3 to 5 pictures of each condition (DMSO: n = 1773, A2: n = 1920, B1: n = 555). Data are representative of two individual experiments with similar results.
Cells were collected at 4600g for 5 min. […]
Images were processed using ImageJ. Cell length and width were quantified using Oufti. Image data were analyzed using GraphPad Prism 10.3.1. […]

[9] = tested on: Rcs stress response in E. coli MC4100 (WT, FQR, GEPR); test: Rcs stress reporter assay in MC4100 wildtype and resistant mutants; type: cell-based; details: EC80 concentrations
Description: Serial passaging of E. coli MC4100 in the presence of increasing concentrations of lomefloxacin or gepotidacin yielded resistant variants of E. coli MC4100. We used MC4100 to raise resistance, because unlike the screening strain TOP10F’, this strain has a functional SOS stress response, which has been implicated in developing resistance against quinolones. Compounds also elicited a robust Rcs stress response in E. coli MC4100, allowing for this strain to be used for stress assays.
4 Rcs stress induced by EC80 concentrations of (A) lomefloxacin, (B) gepotidacin, (C) A2, and (D) B1 in wildtype (WT), fluoroquinolone resistant (FQR) or gepotidacin resistant (GEPR) bacteria. Graphs show the fold change in fluorescence adjusted for bacterial growth as determined by OD600. Error bars indicate the standard deviation of triplicate samples. Data are representative of three independent experiments with similar results. […]
For lower throughput analysis under laboratory conditions, cultures grown to OD600 of 0.3–0.4 were diluted to a final concnetration of 0.05 OD600 units/mL in black, clear-bottom 96-well plates (Greiner Bio-One B.V.). Plates were incubated in a Biotek HTX or H1 plate reader (Agilent Technologies) at 37 °C with continuous shaking. Kinetic studies were performed by measuring OD600 and fluorescence (Ex./Em. Λ: 485/528 nm) every 20 min for 10h. For end point measurements, fluorescence was measured at T = 0 and once more at T = 150 min.

[10] = tested on: E. coli MC4100; test: Growth inhibition after 7 hours (EC80/EC50); details: Escherichia coli, MC4100, 7 h; for EC50: read-out: EC50 MC4100; for IC80: read-out: EC80 MC4100

Structure (SMILES)	MIC [1] [µg/mL]	MIC [2] [µg/mL]	MIC [3] [µg/mL]	MIC [4] [µg/mL]	MIC [5] [µg/mL]	MIC [6] [µg/mL]	MIC [7] [µg/mL]	cell length [8]	Rcs stress in FQR (gyrA S83L) mutant [9]	EC50 [10] [mg/L]	IC80 [10] [mg/L]	Rcs stress in GEPR mutant [9]
CC(C)(C)n1cc(C(=O)O)c(=O)c2cc(F)c(N3CC4CC3CN4)nc21 (centres unmarked) [A2]	0.125 (≈ 0.347 µM)	< 0.03	0.06 (≈ 0.166 µM)	0.5 (≈ 1.39 µM)	1 (≈ 2.77 µM)	8 (≈ 22.2 µM)	0.125 (≈ 0.347 µM)	significantly increased the overall average length of the cells	lacked Rcs stress	0.125 (≈ 0.347 µM)	0.25 (≈ 0.694 µM)	
O=C1COc2ccc(CNC3CCN(CC4Cc5c(F)cc(F)c6ccc(=O)n4c56)CC3)nc2N1 (centres unmarked) [B1]	0.5 (≈ 1.04 µM)	< 0.03	0.25 (≈ 0.519 µM)	0.25 (≈ 0.519 µM)	8 (≈ 16.6 µM)	0.06 (≈ 0.125 µM)	1 (≈ 2.08 µM)	significantly increased the overall average length of the cells	still exhibited Rcs stress	0.5 (≈ 1.04 µM)	2 (≈ 4.15 µM)	did not show Rcs stress
